Legend:
[1] = tested on: human colon cancer HCT15 cells; assay: RT-PCR of MT3 transcription in HCT15 cells; assay type: cell-based; conditions: 16 hours, real-time RT-PCR normalized against beta-actin (FIG. 1)
Experimental: FIG. 1. […] HCT15 cells were treated with HDAC inhibitors or indicated compounds for 16 hours before total RNAs are isolated. RNA levels of MT3 were measured by real-time RT-PCR and are subsequently normalized against β-actin.
Colon cancer HCT15 cells were exposed to 1 μM MGCD0103 for various amounts of time, and MT3 RNA levels were monitored by conventional semi-quantitative RT-PCR. Maximal induction is achieved between 8 h and 24 h of exposure and maintained through 72 h.
RNA was extracted from 8×10^6 cells using the Qiagen RNeasy Mini kit (cat#74106, Qiagen, Missisauga Ont.) following the manufacturer's instructions. RT reaction was performed using the Expand Reverse Transcriptase kit from Roche (Cat#1 785 834 Roche Applied Biosciences, Laval, Que) with 1 μg total RNA together with 1 μl oligo(dT) primer (cat#y01212, Invitrogen-Canada, Burlington, Ont). cDNA was synthesized using an Eppendorf Mastercycler gradient PCR apparatus (Brinkmann Instruments Canada LTD., Mississauga, Ontario), using a two cycle protocol. For the 1st cycle reaction mixture (0.5 μl H2O, 4 μl of 5× Buffer, 2 μl DTT, 2 ul of 10 mM dNTPs, 0.5 μl RNAsin (cat#N211B, Promega, Fisher Scientific, Whitby, Ont.) and […] of the Expand Reverse Transcriptase (Cat#1785834, Roche, Laval, Quebec)) was incubated at 65° C. for 10 minutes and then set on ice. A second cycle was performed at 42° C. for 1 hour. The resulting cDNA products were kept at 4° C. until used.
One ul of the resulting cDNA was used for every amplification reaction with 18.9 ul H2O, 1.25 ul of 10 mM dNTPs, 0.5 ul of each primer pair, 2.5 ul of 10× Buffer. The PCR reaction was carried out in an Eppendorf Mastercycler gradient. The sequences of the primers used for the amplification of selected biomarkers, as well as the details of the PCR reaction cycles are featured below. All buffers came from Expand Long Template PCR system (Roche, Laval, Quebec, Cat#11681842001). All primers were synthesized by Invitrogen (Invitrogen-Canada, Burlington, Ont.)
Analysis of transcripts was performed using STORM 860 (Amersham Biosciences, Baie d'Urfe, Qubec). Transcription of genes was normalized to transcription of actin, which was performed in the same RT-PCR reaction. The relative expression level of gense was normalized to baseline signals.
Quantitative PCR with SYBR Green I detection with Mastercycler® ep realplex (Eppendorf) was performed using LightCycler® 480 SYBR Green I Master (Roche Diagnostics). SYBR Green I assays were performed with 600 nM primers. All other reaction conditions were as described by the manufacturer. Amplification conditions were 5 minutes of initial denaturation at 95° C., followed by 40 cycles of each 15 seconds at 95° C., 15 seconds at 63.4° C., 20 seconds at 68° C., a melting curve from 60° C. to 95° C. was recorded. Quantification was performed using Pfaffl method, a relative quantification method in real-time PCR (Nucleic Acids Research 2001 29:2002-2007). Primers were synthesized by Invitrogen (Invitrogen-Canada, Burlington, Ont.).

[2] = tested on: peripheral blast cells from AML patients; conditions: ex vivo treatment (Nebbioso et al. 2004); cited from earlier work

SMILES	Induction of transcription of MT3 [1]	level of pro-apoptotic TRAIL expression [2]
O=C(CCCCCCC(=O)Nc1ccccc1)NO [SAHA]	induced	
Nc1ccccc1NC(=O)c1ccc(CNC(=O)OCc2cccnc2)cc1 [MS-275]	induced	increase

Source: patent US20070292351A1, “Assay for efficacy of histone deacetylase inhibitors” (Methylgene, Inc., priority 2006, published 2007)
